Data on one compound can be found in patent US20200170247A1, “HAND DISINFECTANTS” (priority 2014, published 2020).

The test deals with microbial load on the hands. Nature of the test: hand disinfectant experiment according to EN 1500. In kind it is in vivo. The note with it: EN 1500, six samples per product; reference 60% 2-propanol (vol/vol). An excerpt: The state of the art for hand disinfectants is described by the test methods, in which an agent is examined in regard to its efficiency. Currently, all agents, which are to be approved for hygienic hand disinfection have to be examined according to standard EN1500. The EN 1500 uses as a microbicidal reference substance 60% 2-propanol (vol/vol) in water. […] In these cases, the effectiveness of alcoholic hand disinfectants with or without the addition of quaternary ammonium compounds is more or less the same. It has also been known that products are possible, which contain as an active agent about 4% of a quaternary ammonium compound or a guanidine and contain, apart from this compound, solubilizers like propylene glycol, butylene glycol and other polyalcohols, so that the products have a degreasing effect on the skin. Unfortunately, all of these products were effective only according to the new standards EN 1499, hand decontamination, which have to meet less stringent requirements than the EN 1500. Agents, which only have to meet the requirements of the EN1499 have to be better than soap in a comparative test. Whereas for passing the EN 1500, in general, a microbial reduction of 4.5 log increments (i.e., a 4.5 log reduction) is required, passing the EN 1499 in general requires 3 log increments (i.e., a 3 log reduction). This is only 3% of the reduction required by the EN 1500. […]

In the case of `CC(C)O` [60% 2-propanol (vol/vol), 2-propanol], the Reduction factor is recorded as 4.1-4.6.
